Results as given in patent US20260373119A1, “NOVEL COMPOUND, AND COMPOSITION FOR PREVENTING OR TREATING HER2-POSITIVE CANCER, COMPRISING SAME” (EWHA UNIVERSITY - INDUSTRY COLLABORATION FOUNDATION, priority 2022, published 2026).

What was measured:
[1] = target: T1, ELF3-MED23 protein-protein interaction (Homo sapiens, UniProt Q9ULK4); conditions: cited from earlier work; for PPI inhibitory activity relative to gefitinib: ELF3-MED23 PPI
T1 construct: followed by the addition of either the candidate compound or MED23 protein constructs; endogenous in cells; host or cells: 293T kidney cells (MED23 endogenous; GAL4-ELF3 transfected)
T1 sequence (Q9ULK4 1-1368): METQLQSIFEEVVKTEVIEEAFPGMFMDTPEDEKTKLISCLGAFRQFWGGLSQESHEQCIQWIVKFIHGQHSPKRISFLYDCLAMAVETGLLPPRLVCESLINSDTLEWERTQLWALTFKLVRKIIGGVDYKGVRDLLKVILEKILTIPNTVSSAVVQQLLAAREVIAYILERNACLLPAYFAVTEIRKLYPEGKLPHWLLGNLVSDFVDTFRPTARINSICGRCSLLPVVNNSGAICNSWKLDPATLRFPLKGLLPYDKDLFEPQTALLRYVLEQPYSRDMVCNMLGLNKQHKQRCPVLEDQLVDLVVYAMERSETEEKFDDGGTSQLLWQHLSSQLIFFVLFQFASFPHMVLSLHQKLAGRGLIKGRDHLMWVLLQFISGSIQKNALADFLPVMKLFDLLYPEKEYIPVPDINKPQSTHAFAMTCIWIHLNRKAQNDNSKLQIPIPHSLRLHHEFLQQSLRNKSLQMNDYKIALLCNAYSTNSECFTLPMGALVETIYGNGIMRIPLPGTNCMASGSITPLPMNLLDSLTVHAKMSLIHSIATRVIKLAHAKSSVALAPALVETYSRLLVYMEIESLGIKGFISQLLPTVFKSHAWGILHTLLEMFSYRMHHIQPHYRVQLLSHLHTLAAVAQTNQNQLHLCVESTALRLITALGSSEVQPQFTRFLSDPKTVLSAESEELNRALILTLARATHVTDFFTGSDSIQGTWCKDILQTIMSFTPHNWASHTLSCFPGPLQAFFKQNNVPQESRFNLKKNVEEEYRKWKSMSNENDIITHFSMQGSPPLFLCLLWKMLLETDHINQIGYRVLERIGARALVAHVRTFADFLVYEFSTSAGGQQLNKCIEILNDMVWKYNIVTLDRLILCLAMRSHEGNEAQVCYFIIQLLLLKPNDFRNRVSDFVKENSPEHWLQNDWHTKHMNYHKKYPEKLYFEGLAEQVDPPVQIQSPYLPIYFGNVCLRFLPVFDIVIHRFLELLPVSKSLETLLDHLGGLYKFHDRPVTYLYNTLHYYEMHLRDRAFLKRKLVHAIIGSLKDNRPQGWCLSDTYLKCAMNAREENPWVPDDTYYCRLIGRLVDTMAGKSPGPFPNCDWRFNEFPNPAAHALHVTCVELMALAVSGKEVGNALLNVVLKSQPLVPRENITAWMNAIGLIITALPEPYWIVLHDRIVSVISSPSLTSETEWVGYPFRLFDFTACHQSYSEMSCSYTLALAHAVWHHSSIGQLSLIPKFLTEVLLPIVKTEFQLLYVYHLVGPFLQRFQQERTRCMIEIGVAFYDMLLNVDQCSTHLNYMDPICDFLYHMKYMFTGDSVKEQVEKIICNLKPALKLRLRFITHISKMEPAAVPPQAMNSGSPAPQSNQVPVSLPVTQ

[2] = target: T1, ELF3-MED23 protein-protein interaction; test: SEAP reporter assay, ELF3-MED23 PPI inhibition (293T kidney cells); assay type: cell-based; conditions: 10 μM; for inhibition at 10 µM: HEK-293T
Procedure: To verify whether the D400 and H449 residues play a critical role in the ELF3-MED23 protein-protein interaction, a SEAP assay was performed. Specifically, 293T kidney cells were seeded at a density of 5×10^3 cells/well in a 96-well microplate (SPL, Korea) and cultured overnight. Subsequently, the cells were co-transfected with 100 ng of each plasmid using transfection-optimized medium (Welgene, Korea). The plasmids used included the SEAP reporter gene (pG5IL2SX) and GAL4-ELF3 expression vector (pBJ GAL4-ELF3). For transfection, the cells were incubated with WelFectQ (Welgene, Korea) for 3 hours, followed by the addition of either the candidate compound or MED23 protein constructs (pcDNA MED23^WT, K397A, D400A, H449G, and D400A/H449G). The treated cells were incubated for 12 hours. The candidate compound was added in an incubator at 5% CO2 and 37 °C, and the plate was incubated at 65 °C for 3 hours to inactivate all enzymes except SEAP (Secreted Alkaline Phosphatase). A mixture comprising 100 μL of substrate solution prepared with 1.19 μL of 0.1 M 4-methylumbelliferyl phosphate (Sigma, USA), 25 μL of inactivated medium, and 75 μL of double-distilled water was added, followed by the addition of 98.81 μL of 2 M diethanolamine (pH 10, Sigma, USA). The plate was incubated overnight at 37 °C. Subsequently, the fluorescence intensity was measured using a fluorometer (SPECTRAmax […], Molecular Devices, USA) at an excitation wavelength of 360 nm and an emission wavelength of 440 nm.
To further elaborate on the above findings, small molecule compounds that could affect the ELF3-MED23 PPI were designed and synthesized. Specifically, non-essential side chains were removed from gefitnib, and compounds were designed to include both hydrogen bond donors and acceptors for the D400 and H449 residues of MED23, respectively (FIG. 4A). Specifically, chalcones and pyrazolines were selected as core scaffolds, and 25 compounds (11 chalcones and 14 pyrazoline-based compounds) were prepared. The ELF3-MED23 PPI inhibitory activity of all prepared compounds was measured using a SEAP assay.

[3] = target: T2, (His)6-MED23391-582 / FITC-ELF3129-145 peptide (Homo sapiens, UniProt Q9ULK4); test: fluorescence polarization displacement assay; assay type: binding; conditions: 80 nM (His)6-MED23391-582, 10 nM FITC-ELF3129-145; Cheng-Prusoff; read-out: PPI inhibitory activity calculated based on Ki value
T2 construct: 391-582 and fluorescein isothiocyanate (FITC)-labeled
T2 sequence (Q9ULK4 391-582 limits assumed): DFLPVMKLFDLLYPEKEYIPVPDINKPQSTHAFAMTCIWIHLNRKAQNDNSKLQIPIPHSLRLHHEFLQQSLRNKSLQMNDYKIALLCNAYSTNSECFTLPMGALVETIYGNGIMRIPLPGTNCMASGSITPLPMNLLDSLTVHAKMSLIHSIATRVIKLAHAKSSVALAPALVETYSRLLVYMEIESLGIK
Procedure: The samples, adjusted to a final volume of 50 μL, were incubated at room temperature for 30 minutes. Kd values were calculated using a least-squares non-linear fit method with Prism 6.0 software (GraphPad Software, USA). FP signals were measured in millipolarization (mP) units using an Infinite F200 PRO microplate reader (Tecan Group Ltd., Switzerland) at an excitation wavelength of 485 nm and an emission wavelength of 535 nm. For displacement analysis, graded concentrations of YK1 and unlabeled ELF3137-144 peptides were mixed with 80 nM (His) 6-MED23391-582 and 10 nM FITC-ELF3129-145.
The effect of compound YK1 was confirmed by measuring the reduction in FP signals, using unlabeled peptides as a positive control. The IC50 of each compound was determined by fitting the data to a four-parameter logistic equation using the Table Curve 2D program (SPSS Inc.). The Ki value was calculated using the Cheng-Prusoff equation (Ki=IC50/1+([Ligand]/Kd))

[4] = test system: HCT15 (HER2-positive colorectal cancer cell line); test: antiproliferative effect, HCT15; assay type: cell-based; conditions: Homo sapiens, HCT-15, 72 hours
Procedure: (§1) The antiproliferative effects were measured after treating Compounds 1 to 22 for 72 hours on HCT15 (HER2-positive colorectal cancer cell line), NCI-N87 (HER2-positive gastric cancer cell line), T47D (HER2-negative breast cancer cell line), and HeLa (HER2-negative cervical cancer cell line). As a result, strong antiproliferative effects were generally observed in the NCI-N87 cell line (Table 2).
(§2) The antiproliferative effects of the candidate compound, resulting from HER2 inhibition, were evaluated. Specifically, to confirm the anticancer effects of the candidate compound, cancer cells were seeded at a density of 10^4 cells/well in a 96-well cell culture plate for 20 hours. The cells were starved in serum-free media for 4 hours, followed by replacement with media containing the compound at specified concentrations. The cells were then incubated for 72 hours under conditions of 5% CO2 at 37 °C. Cell viability was determined by adding 5 μL of EZ-CytoX to each well and measuring absorbance at 450 nm. The measurements were performed using an ELISA Microplate Reader (VersaMax, Molecular Devices).

[5] = test system: NCI-N87 (HER2-positive gastric cancer cell line); test: antiproliferative effect, NCI-N87; assay type: cell-based; conditions: Homo sapiens, NCI-N87; 72 hours; HER2-positive
Procedure: as §1, §2

[6] = test system: T47D (HER2-negative breast cancer cell line); test: antiproliferative effect, T47D; assay type: cell-based; conditions: Homo sapiens, 72 hours
Procedure: as §1, §2

[7] = test system: HeLa (HER2-negative cervical cancer cell line); test: antiproliferative effect, HeLa; assay type: cell-based; conditions: Homo sapiens, 72 hours
Procedure: as §1, §2

[8] = target: MED23 wild-type (FLAG-tagged) (Homo sapiens, UniProt Q9ULK4); test: LC-MS/MS protein-small molecule interaction, wild-type MED23; assay type: binding; conditions: internal standard
Procedure: HEK293 cells were seeded in a […] and incubated until they reached 70-80% confluency. The cells were transfected with p3Xflag-myc-CMV26-MED23^WT and p3Xflag-myc-CMV26-MED23^D400A/H449G plasmids for 24 hours, followed by lysis to obtain protein extracts. To isolate the candidate compound (YK1) bound to MED23, total lysates were incubated with YK1 for 4 hours and subsequently subjected to pulldown using FLAG-agarose beads (Sigma Aldrich, USA). The precipitated beads were washed at least three times to completely remove unbound compounds. To separate the candidate compound from the precipitated MED23, 50 μL of the sample was extracted with 1 mL of acetonitrile and centrifuged at 13,000 rpm at 4 °C for 10 minutes. The supernatant (1,000 μL) from each sample was transferred to a new tube and dried under nitrogen gas at 37 °C. For YK1 analysis, the residue was dissolved in 50 μL of ACN and vortexed for 10 minutes. […] The mixture was then extracted with 450 μL of ACN by ultrasonic treatment and vortex mixing. The candidate compound bound to MED23 was finally analyzed using an Agilent 6460 triple quadrupole mass spectrometer (Agilent Technologies, USA).

Molecule | SEAP assay Inhibition (%) [2] [%] | Ki [3] [µM] | inhibition at 10 µM [2] [%] | IC50 [4] [µM] | IC50 [5] [µM] | IC50 [6] [µM] | IC50 [7] [µM] | binding affinity to MED23 relative to candidate compound [8] | PPI inhibitory activity relative to gefitinib [1] | known ELF3-MED23 PPI inhibition [1]
C=CC(=O)Nc1cc2c(Nc3ccc(F)c(Cl)c3)ncnc2cc1OCCCN1CCOCC1 [canertinib] |  |  |  |  |  |  |  |  | superior PPI inhibitory activity compared to gefitinib | inhibit ELF3-MED23 protein-protein interaction (PPI)
Cc1ccc(S(=O)(=O)n2ccc3c(OCC(O)CN(CCCCCN)C(=O)N4CCC(C5CCN(C(=O)C67CC8CC(CC(C8)C6)C7)CC5)CC4)cccc32)cc1 (centres unmarked) [wrenchnolol] |  |  |  |  |  |  |  |  |  | inhibit ELF3-MED23 protein-protein interaction (PPI)
CC(C)N(CC(O)COc1cccc2[nH]ccc12)C(=O)N1CCC(C2CCN(C(=O)C34CC5CC(CC(C5)C3)C4)CC2)CC1 (centres unmarked) [adamanolol] |  |  |  |  |  |  |  |  |  | inhibit ELF3-MED23 protein-protein interaction (PPI)
O=C(/C=C/c1ccc(O)cc1)c1ccccc1O [Compound 9, 3-(4-Hydroxyphenyl)-1-(2-hydroxyphenyl)-propenone] |  |  | 50 | > 50 | > 50 | 27.89 ± 0.06 | > 50 |  |  | 
CC(=O)N1N=C(c2cccc(O)c2)CC1c1ccc(O)cc1 (centres unmarked) [Compound 16, 1-[5-(4-Hydroxyphenyl)-3-(3-hydroxyphenyl)-4,5-dihydropyrazol-1-yl]-ethanone] |  |  | 37 | > 50 | > 50 | > 50 | > 50 |  |  | 
O=C(/C=C/c1ccc(Cl)cc1)c1cccc(O)c1 [Compound 4, 3-(4-Chlorophenyl)-1-(3-hydroxyphenyl)-propenone] |  |  | 80 | 12 ± 0.17 | 4.82 ± 0.1 | 17.57 ± 0.13 | 25.64 ± 0.09 |  |  | 

Now from value to molecule, other results behind:

SEAP assay Inhibition (%) [2] [%] | Ki [3] [µM] | inhibition at 10 µM [2] [%] | IC50 [4] [µM] | IC50 [5] [µM] | IC50 [6] [µM] | IC50 [7] [µM] | binding affinity to MED23 relative to candidate compound [8] | Molecule | PPI inhibitory activity relative to gefitinib [1] | known ELF3-MED23 PPI inhibition [1]
53 | 0.78 ± 0.05 |  |  |  |  |  |  | ELF3137-144: ELF3137-144 peptide (8 a.a.), amino acids 137-144 of ELF3 (SWIIELLE; UniProt P78545 137-144, looked up, fragment) [reference compound] | superior PPI inhibitory activity compared to gefitinib | 
 |  | 85 |  |  |  |  |  | COc1cc2ncnc(Nc3ccc(F)c(Cl)c3)c2cc1OCCCN1CCOCC1 [Gefitinib, gefitinib, reference compound] |  | inhibit ELF3-MED23 protein-protein interaction (PPI)
 |  | 23 | > 50 | > 50 | > 50 | > 50 |  | CC(=O)N1N=C(c2ccccc2O)CC1c1ccco1 (centres unmarked) [Compound 17, 1-[5-Furan-2-yl-3-(2-hydroxyphenyl)-4,5-dihydropyrazol-1-yl]-ethanone] |  | 
 |  | 0 | 19.7 ± 0.05 | > 50 | 29.28 ± 0.27 | 6.69 ± 0.4 | lower binding affinity to MED23 | COc1ccc(C2CC(c3ccccc3O)=NN2C(C)=O)c2ccccc12 (centres unmarked) [Compound 18, 1-[3-(2-Hydroxyphenyl)-5-(4-methoxynaphthalen-1-yl)-4,5-dihydropyrazol-1-yl]-ethanone] |  | 
